# Measurements: PMC10006169, “A phase I trial of LXS196, a protein kinase C (PKC) inhibitor, for metastatic uveal melanoma” (British Journal of Cancer, 2023)
# Where “and” joins values, the source holds several entries; their conditions need not be identical. Equal entries are not always repeated.
# Tested on: patients with MUM
# Experiment: Adverse events suspected to be study drug related (NCI-CTCAE v4.03)
# Format: in vivo, human
# Conditions: for Alanine aminotransferase increased / Aspartate aminotransferase increased / Asthenia / Blood creatinine increased / Constipation / Diarrhoea / Dry skin / Fatigue / Hypotension / Nausea / Number of patients with ≥1 adverse event / Rash / Vomiting: suspected drug related
# Procedure: Routine safety assessments, including laboratory assessments, physical examinations, vital signs and electrocardiograms (ECGs), were conducted at regular intervals throughout the study and more frequently as needed following patient assessment by the treating physician. Adverse events (AEs) were assessed continuously according to the National Cancer Institute Common Terminology Criteria for Adverse Events (NCI-CTCAE) v4.03.
# [1] = 300 mg BID (RDE), n=18, All grades
# [2] = 300 mg BID (RDE), n=18, Grade ≥3
# [3] = All LXS196 BID patients, n=30, All grades
# [4] = All LXS196 BID patients, n=30, Grade ≥3
# [5] = All LXS196 patients, N=68, All grades
# [6] = All LXS196 patients, N=68, Grade ≥3
structure (smiles),measurement,setting,value
CC1(N)CCN(c2cccnc2NC(=O)c2nc(-c3ncccc3C(F)(F)F)cnc2N)CC1 [LXS196],"Dry skin, all grades",All BID,6 (20.0) n (%)
same,"Dry skin, grade ≥3",All BID,0 n (%)
same,"Fatigue, all grades",All BID,4 (13.3) n (%)
same,"Fatigue, grade ≥3",All BID,0 n (%)
same,"Hypotension, all grades",All BID,7 (23.3) n (%)
same,"Nausea, all grades",All BID,19 (63.3) n (%)
same,"Nausea, grade ≥3",All BID,0 n (%)
same,"Patients with ≥1 AE, all grades",All BID,28 (93.3) n (%)
same,"Patients with ≥1 AE, grade ≥3",All BID,6 (20.0) n (%)
same,"Rash, all grades",All BID,5 (16.7) n (%)
same,"Rash, grade ≥3",All BID,0 n (%)
same,"Vomiting, all grades",All BID,9 (30.0) n (%)
same,"Vomiting, grade ≥3",All BID,0 n (%)
same,"ALT increased, all grades",All QD,7 (18.4) n (%)
same,"ALT increased, grade ≥3",All QD,2 (5.3) n (%)
same,"AST increased, all grades",All QD,5 (13.2) n (%)
same,"AST increased, grade ≥3",All QD,2 (5.3) n (%)
same,"Asthenia, all grades",All QD,6 (15.8) n (%)
same,"Asthenia, grade ≥3",All QD,0 n (%)
same,"Blood creatinine increased, all grades",All QD,2 (5.3) n (%)
same,"Blood creatinine increased, grade ≥3",All QD,0 n (%)
same,"Constipation, all grades",All QD,4 (10.5) n (%)
same,"Constipation, grade ≥3",All QD,0 n (%)
same,"Diarrhoea, all grades",All QD,15 (39.5) n (%)
same,"Diarrhoea, grade ≥3",All QD,0 n (%)
same,"Dry skin, all grades",All QD,2 (5.3) n (%)
same,"Dry skin, grade ≥3",All QD,0 n (%)
same,"Fatigue, all grades",All QD,10 (26.3) n (%)
same,"Fatigue, grade ≥3",All QD,0 n (%)
same,"Hypotension, all grades",All QD,8 (21.1) n (%)
same,"Nausea, all grades",All QD,26 (68.4) n (%)
same,"Nausea, grade ≥3",All QD,1 (2.6) n (%)
same,"Patients with ≥1 AE, all grades",All QD,35 (92.1) n (%)
same,"Patients with ≥1 AE, grade ≥3",All QD,11 (28.9) n (%)
same,"Rash, all grades",All QD,3 (7.9) n (%)
same,"Rash, grade ≥3",All QD,0 n (%)
same,"Vomiting, all grades",All QD,12 (31.6) n (%)
same,"Vomiting, grade ≥3",All QD,1 (2.6) n (%)
same,"ALT increased, all grades",All patients,15 (22.1) n (%)
same,"ALT increased, grade ≥3",All patients,4 (5.9) n (%)
same,"AST increased, all grades",All patients,11 (16.2) n (%)
same,"AST increased, grade ≥3",All patients,4 (5.9) n (%)
same,"Asthenia, all grades",All patients,13 (19.1) n (%)
same,"Asthenia, grade ≥3",All patients,0 n (%)
same,"Blood creatinine increased, all grades",All patients,7 (10.3) n (%)
same,"Blood creatinine increased, grade ≥3",All patients,0 n (%)
same,"Constipation, all grades",All patients,7 (10.3) n (%)
same,"Constipation, grade ≥3",All patients,0 n (%)
same,"Diarrhoea, all grades",All patients,31 (45.6) n (%)
same,"Diarrhoea, grade ≥3",All patients,1 (1.5) n (%)
same,"Dry skin, all grades",All patients,8 (11.8) n (%)
same,"Dry skin, grade ≥3",All patients,0 n (%)
same,"Fatigue, all grades",All patients,14 (20.6) n (%)
same,"Fatigue, grade ≥3",All patients,0 n (%)
same,"Hypotension, all grades",All patients,15 (22.1) n (%)
same,"Hypotension, grade ≥3",All patients,6 (8.8) n (%)
same,"Nausea, all grades",All patients,45 (66.2) n (%)
same,"Nausea, grade ≥3",All patients,1 (1.5) n (%)
same,"Patients with ≥1 AE, all grades",All patients,63 (92.6%) n (%) and 63 (92.6) n (%)
same,"Patients with ≥1 AE, grade ≥3",All patients,17 (25.0%) n (%) and 17 (25.0) n (%)
same,"Rash, all grades",All patients,8 (11.8) n (%)
same,"Rash, grade ≥3",All patients,0 n (%)
same,"Vomiting, all grades",All patients,21 (30.9) n (%)
same,"Vomiting, grade ≥3",All patients,1 (1.5) n (%)
same,Alanine aminotransferase increased,"200 mg BID, n=6, All grades",0 n (%)
same,Aspartate aminotransferase increased,"200 mg BID, n=6, All grades",0 n (%)
same,Asthenia,"200 mg BID, n=6, All grades",1 (16.7) n (%)
same,Blood creatinine increased,"200 mg BID, n=6, All grades",3 (50.0) n (%)
same,Constipation,"200 mg BID, n=6, All grades",0 n (%)
same,Diarrhoea,"200 mg BID, n=6, All grades",2 (33.3) n (%)
same,Dry skin,"200 mg BID, n=6, All grades",1 (16.7) n (%)
same,Fatigue,"200 mg BID, n=6, All grades",0 n (%)
same,Hypotension,"200 mg BID, n=6, All grades",0 n (%)
same,Nausea,"200 mg BID, n=6, All grades",2 (33.3) n (%)
same,Number of patients with ≥1 adverse event,"200 mg BID, n=6, All grades",5 (83.3) n (%)
same,Rash,"200 mg BID, n=6, All grades",0 n (%)
same,Vomiting,"200 mg BID, n=6, All grades",0 n (%)
same,Alanine aminotransferase increased,"200 mg BID, n=6, Grade ≥3",0 n (%)
same,Aspartate aminotransferase increased,"200 mg BID, n=6, Grade ≥3",0 n (%)
same,Asthenia,"200 mg BID, n=6, Grade ≥3",0 n (%)
same,Blood creatinine increased,"200 mg BID, n=6, Grade ≥3",0 n (%)
same,Constipation,"200 mg BID, n=6, Grade ≥3",0 n (%)
same,Diarrhoea,"200 mg BID, n=6, Grade ≥3",0 n (%)
same,Dry skin,"200 mg BID, n=6, Grade ≥3",0 n (%)
same,Fatigue,"200 mg BID, n=6, Grade ≥3",0 n (%)
same,Hypotension,"200 mg BID, n=6, Grade ≥3",0 n (%)
same,Nausea,"200 mg BID, n=6, Grade ≥3",0 n (%)
same,Number of patients with ≥1 adverse event,"200 mg BID, n=6, Grade ≥3",0 n (%)
same,Rash,"200 mg BID, n=6, Grade ≥3",0 n (%)
same,Vomiting,"200 mg BID, n=6, Grade ≥3",0 n (%)
same,Alanine aminotransferase increased,[1],5 (27.8) n (%)
same,Aspartate aminotransferase increased,[1],3 (16.7) n (%)
same,Asthenia,[1],4 (22.2) n (%)
same,Blood creatinine increased,[1],2 (11.1) n (%)
same,Constipation,[1],1 (5.6) n (%)
same,Diarrhoea,[1],11 (61.1) n (%)
same,Dry skin,[1],4 (22.2) n (%)
same,Fatigue,[1],3 (16.7) n (%)
same,Hypotension,[1],3 (16.7) n (%)
same,Nausea,[1],14 (77.8) n (%)
same,Number of patients with ≥1 adverse event,[1],17 (94.4) n (%)
same,Rash,[1],4 (22.2) n (%)
same,Vomiting,[1],7 (38.9) n (%)
same,Alanine aminotransferase increased,[2],1 (5.6) n (%)
same,Aspartate aminotransferase increased,[2],1 (5.6) n (%)
same,Asthenia,[2],0 n (%)
same,Blood creatinine increased,[2],0 n (%)
same,Constipation,[2],0 n (%)
same,Diarrhoea,[2],1 (5.6) n (%)
same,Dry skin,[2],0 n (%)
same,Fatigue,[2],0 n (%)
same,Hypotension,[2],0 n (%)
same,Nausea,[2],0 n (%)
same,Number of patients with ≥1 adverse event,[2],2 (11.1) n (%)
same,Rash,[2],0 n (%)
same,Vomiting,[2],0 n (%)
same,Alanine aminotransferase increased,"400 mg BID, n=6, All grades",3 (50.0) n (%)
same,Aspartate aminotransferase increased,"400 mg BID, n=6, All grades",3 (50.0) n (%)
same,Asthenia,"400 mg BID, n=6, All grades",2 (33.3) n (%)
same,Blood creatinine increased,"400 mg BID, n=6, All grades",0 n (%)
same,Constipation,"400 mg BID, n=6, All grades",2 (33.3) n (%)
same,Diarrhoea,"400 mg BID, n=6, All grades",3 (50.0) n (%)
same,Dry skin,"400 mg BID, n=6, All grades",1 (16.7) n (%)
same,Fatigue,"400 mg BID, n=6, All grades",1 (16.7) n (%)
same,Hypotension,"400 mg BID, n=6, All grades",4 (66.7) n (%)
same,Nausea,"400 mg BID, n=6, All grades",3 (50.0) n (%)
same,Number of patients with ≥1 adverse event,"400 mg BID, n=6, All grades",6 (100) n (%)
same,Rash,"400 mg BID, n=6, All grades",1 (16.7) n (%)
same,Vomiting,"400 mg BID, n=6, All grades",2 (33.3) n (%)
same,Alanine aminotransferase increased,"400 mg BID, n=6, Grade ≥3",1 (16.7) n (%)
same,Aspartate aminotransferase increased,"400 mg BID, n=6, Grade ≥3",1 (16.7) n (%)
same,Asthenia,"400 mg BID, n=6, Grade ≥3",0 n (%)
same,Blood creatinine increased,"400 mg BID, n=6, Grade ≥3",0 n (%)
same,Constipation,"400 mg BID, n=6, Grade ≥3",0 n (%)
same,Diarrhoea,"400 mg BID, n=6, Grade ≥3",0 n (%)
same,Dry skin,"400 mg BID, n=6, Grade ≥3",0 n (%)
same,Fatigue,"400 mg BID, n=6, Grade ≥3",0 n (%)
same,Hypotension,"400 mg BID, n=6, Grade ≥3",1 (16.7) n (%)
same,Nausea,"400 mg BID, n=6, Grade ≥3",0 n (%)
same,Number of patients with ≥1 adverse event,"400 mg BID, n=6, Grade ≥3",4 (66.7) n (%)
same,Rash,"400 mg BID, n=6, Grade ≥3",0 n (%)
same,Vomiting,"400 mg BID, n=6, Grade ≥3",0 n (%)
same,Alanine aminotransferase increased,[3],8 (26.7) n (%)
same,Aspartate aminotransferase increased,[3],6 (20.0) n (%)
same,Asthenia,[3],7 (23.3) n (%)
same,Blood creatinine increased,[3],5 (16.7) n (%)
same,Constipation,[3],3 (10.0) n (%)
same,Diarrhoea,[3],16 (53.3) n (%)
same,Dry skin,[3],6 (20.0) n (%)
same,Fatigue,[3],4 (13.3) n (%)
same,Hypotension,[3],7 (23.3) n (%)
same,Nausea,[3],19 (63.3) n (%)
same,Number of patients with ≥1 adverse event,[3],28 (93.3) n (%)
same,Rash,[3],5 (16.7) n (%)
same,Vomiting,[3],9 (30.0) n (%)
same,Alanine aminotransferase increased,[4],2 (6.7) n (%)
same,Aspartate aminotransferase increased,[4],2 (6.7) n (%)
same,Asthenia,[4],0 n (%)
same,Blood creatinine increased,[4],0 n (%)
same,Constipation,[4],0 n (%)
same,Diarrhoea,[4],1 (3.3) n (%)
same,Dry skin,[4],0 n (%)
same,Fatigue,[4],0 n (%)
same,Hypotension,[4],1 (3.3) n (%)
same,Nausea,[4],0 n (%)
same,Number of patients with ≥1 adverse event,[4],6 (20.0) n (%)
same,Rash,[4],0 n (%)
same,Vomiting,[4],0 n (%)
same,Alanine aminotransferase increased,[5],15 (22.1) n (%)
same,Aspartate aminotransferase increased,[5],11 (16.2) n (%)
same,Asthenia,[5],13 (19.1) n (%)
same,Blood creatinine increased,[5],7 (10.3) n (%)
same,Constipation,[5],7 (10.3) n (%)
same,Diarrhoea,[5],31 (45.6) n (%)
same,Dry skin,[5],8 (11.8) n (%)
same,Fatigue,[5],14 (20.6) n (%)
same,Hypotension,[5],15 (22.1) n (%)
same,Nausea,[5],45 (66.2) n (%)
same,Number of patients with ≥1 adverse event,[5],63 (92.6) n (%)
same,Rash,[5],8 (11.8) n (%)
same,Vomiting,[5],21 (30.9) n (%)
same,Alanine aminotransferase increased,[6],4 (5.9) n (%)
same,Aspartate aminotransferase increased,[6],4 (5.9) n (%)
same,Asthenia,[6],0 n (%)
same,Blood creatinine increased,[6],0 n (%)
same,Constipation,[6],0 n (%)
same,Diarrhoea,[6],1 (1.5) n (%)
same,Dry skin,[6],0 n (%)
same,Fatigue,[6],0 n (%)
same,Hypotension,[6],6 (8.8) n (%)
same,Nausea,[6],1 (1.5) n (%)
same,Number of patients with ≥1 adverse event,[6],17 (25.0) n (%)
same,Rash,[6],0 n (%)
same,Vomiting,[6],1 (1.5) n (%)
